{"source": "patent US7563592B2", "about": "“Alizarin-based chromogenic substrates, their uses and composition containing same” (Biomerieux, S.A., priority 1999, dated 2009)", "key": {"[1]": {"system": "Enterococcus faecalis 117", "experiment": "β-galactosidase detection in semi-solid Columbia medium (Example 1)", "format": "cell-based"}, "[2]": {"system": "Acinetobacter spp.", "experiment": "β-galactosidase detection on semi-solid medium, clinical and environmental strains (Example 2)", "format": "cell-based", "conditions": "50 mg/l + iron citrate 500 mg/l; 18 hours; 53 strains tested"}, "[3]": {"system": "Citrobacter freundii", "experiment": "β-galactosidase detection on semi-solid medium, clinical and environmental strains (Example 2)", "format": "cell-based", "conditions": "50 mg/l + iron citrate 500 mg/l; 18 hours; 16 strains tested"}, "[4]": {"system": "Enterobacter cloacae", "experiment": "β-galactosidase detection on semi-solid medium, clinical and environmental strains (Example 2)", "format": "cell-based", "conditions": "50 mg/l + iron citrate 500 mg/l; 18 hours; 21 strains tested"}, "[5]": {"system": "Escherichia coli", "experiment": "β-galactosidase detection on semi-solid medium, clinical and environmental strains (Example 2)", "format": "cell-based", "conditions": "50 mg/l + iron citrate 500 mg/l; 18 hours; 41 strains tested"}, "[6]": {"system": "Proteus mirabilis", "experiment": "β-galactosidase detection on semi-solid medium, clinical and environmental strains (Example 2)", "format": "cell-based", "conditions": "50 mg/l + iron citrate 500 mg/l; 18 hours; 16 strains tested"}, "[7]": {"system": "Providencia stuartii", "experiment": "β-galactosidase detection on semi-solid medium, clinical and environmental strains (Example 2)", "format": "cell-based", "conditions": "50 mg/l + iron citrate 500 mg/l; 18 hours; 10 strains tested"}, "[8]": {"system": "Salmonella spp.", "experiment": "β-galactosidase detection on semi-solid medium, clinical and environmental strains (Example 2)", "format": "cell-based", "conditions": "50 mg/l + iron citrate 500 mg/l; 18 hours; 64 strains tested"}, "[9]": {"system": "β-galactosidase (EC 3.2.1.23 Sigma)", "experiment": "Effect of pH on β-D-galactosidase detection, substrate 0.05 g/l in water (Example 4)", "format": "biochemical", "method": "To each of eighteen tubes containing 5 ml of osmotically purified water, the following were added Alizarin-2-β-D-galactoside (0.05 g/l) and 5 μl of β-galactosidase (EC 3.2.1.23 Sigma). Ammoniacal iron citrate (0.05 g/l) was added to half of these tubes. […] Finally, the pH of these tubes was adjusted to different values (2-3-4-5-6-7-8-9-10) at 24° C."}, "[10]": {"system": "Listeria ivanovii 018", "experiment": "β-glucosidase detection in API strip wells (Example 6)", "conditions": "0.12 g/l + iron citrate 0.05 g/l"}, "[11]": {"system": "Bacillus thuringiensis 072", "experiment": "β-glucosidase detection in API strip wells (Example 6)", "conditions": "0.12 g/l + iron citrate 0.05 g/l; 24 H"}}}
{"smiles": "O=C1c2ccccc2C(=O)c2c1ccc(O[C@@H]1O[C@H](CO)[C@H](O)[C@H](O)[C@H]1O)c2O", "note": "[Alizarin-2-β-D-galactoside]", "values": [{"measurement": "Color", "setting": "[1]; 0.01 g/l + iron citrate, 18 H", "value": "purple"}, {"measurement": "Intensity", "setting": "[1]; 0.01 g/l + iron citrate, 18 H", "value": 0.3}, {"measurement": "Color", "setting": "[1]; 0.01 g/l + iron citrate, 24 H", "value": "purple"}, {"measurement": "Intensity", "setting": "[1]; 0.01 g/l + iron citrate, 24 H", "value": 0.6}, {"measurement": "Color", "setting": "[1]; 0.01 g/l + iron citrate, 48 H", "value": "purple"}, {"measurement": "Intensity", "setting": "[1]; 0.01 g/l + iron citrate, 48 H", "value": 0.6}, {"measurement": "Color", "setting": "[1]; 0.03 g/l + iron citrate, 18 H", "value": "purple"}, {"measurement": "Intensity", "setting": "[1]; 0.03 g/l + iron citrate, 18 H", "value": 2.7}, {"measurement": "Color", "setting": "[1]; 0.03 g/l + iron citrate, 24 H", "value": "purple"}, {"measurement": "Intensity", "setting": "[1]; 0.03 g/l + iron citrate, 24 H", "value": 3}, {"measurement": "Color", "setting": "[1]; 0.03 g/l + iron citrate, 48 H", "value": "purple"}, {"measurement": "Intensity", "setting": "[1]; 0.03 g/l + iron citrate, 48 H", "value": 3.5}, {"measurement": "Color", "setting": "[1]; 0.05 g/l + iron citrate, 18 H", "value": "purple"}, {"measurement": "Intensity", "setting": "[1]; 0.05 g/l + iron citrate, 18 H", "value": 4}, {"measurement": "Color", "setting": "[1]; 0.05 g/l + iron citrate, 24 H", "value": "purple"}, {"measurement": "Intensity", "setting": "[1]; 0.05 g/l + iron citrate, 24 H", "value": 4}, {"measurement": "Color", "setting": "[1]; 0.05 g/l + iron citrate, 48 H", "value": "purple"}, {"measurement": "Intensity", "setting": "[1]; 0.05 g/l + iron citrate, 48 H", "value": 4}, {"measurement": "Color", "setting": "[1]; 0.08 g/l + iron citrate, 18 H", "value": "purple"}, {"measurement": "Intensity", "setting": "[1]; 0.08 g/l + iron citrate, 18 H", "value": 4}, {"measurement": "Color", "setting": "[1]; 0.08 g/l + iron citrate, 24 H", "value": "purple"}, {"measurement": "Intensity", "setting": "[1]; 0.08 g/l + iron citrate, 24 H", "value": 4}, {"measurement": "Color", "setting": "[1]; 0.08 g/l + iron citrate, 48 H", "value": "purple"}, {"measurement": "Intensity", "setting": "[1]; 0.08 g/l + iron citrate, 48 H", "value": 4}, {"measurement": "percentage of positive strains", "setting": "[2]", "value": 0, "unit": "%"}, {"measurement": "percentage of positive strains", "setting": "[3]", "value": 100, "unit": "%"}, {"measurement": "percentage of positive strains", "setting": "[4]", "value": 100, "unit": "%"}, {"measurement": "percentage of positive strains", "setting": "[5]", "value": 95, "unit": "%"}, {"measurement": "percentage of positive strains", "setting": "[6]", "value": 0, "unit": "%"}, {"measurement": "percentage of positive strains", "setting": "[7]", "value": 0, "unit": "%"}, {"measurement": "percentage of positive strains", "setting": "[8]", "value": 0, "unit": "%"}, {"measurement": "color of the tubes after incubation, before pH adjustment", "setting": "[9]; 4 hours at 37° C., no Ammoniacal iron citrate", "value": "light pink"}, {"measurement": "pink coloration of the tubes after incubation, before pH adjustment", "setting": "[9]; 4 hours at 37° C., with Ammoniacal iron citrate 0.05 g/l, versus tubes without", "value": "more intense"}, {"measurement": "Color", "setting": "[9]; pH 2, no iron", "value": "Yellow"}, {"measurement": "Color", "setting": "[9]; pH 2, with iron (Ammoniacal iron citrate 0.05 g/l)", "value": "Yellow"}, {"measurement": "Color", "setting": "[9]; pH 3, no iron", "value": "Yellow"}, {"measurement": "Color", "setting": "[9]; pH 3, with iron (Ammoniacal iron citrate 0.05 g/l)", "value": "Yellow"}, {"measurement": "Color", "setting": "[9]; pH 4, no iron", "value": "Yellow"}, {"measurement": "Color", "setting": "[9]; pH 4, with iron (Ammoniacal iron citrate 0.05 g/l)", "value": "Yellow"}, {"measurement": "Color", "setting": "[9]; pH 5, no iron", "value": "Yellow-Orange"}, {"measurement": "Color", "setting": "[9]; pH 5, with iron (Ammoniacal iron citrate 0.05 g/l)", "value": "Yellow-Pink"}, {"measurement": "Color", "setting": "[9]; pH 6, no iron", "value": "Pink-Orange"}, {"measurement": "Color", "setting": "[9]; pH 6, with iron (Ammoniacal iron citrate 0.05 g/l)", "value": "Pink"}, {"measurement": "Color", "setting": "[9]; pH 7, no iron", "value": "Pink-Orange"}, {"measurement": "Color", "setting": "[9]; pH 7, with iron (Ammoniacal iron citrate 0.05 g/l)", "value": "Pink"}, {"measurement": "Color", "setting": "[9]; pH 8, no iron", "value": "Pink"}, {"measurement": "Color", "setting": "[9]; pH 8, with iron (Ammoniacal iron citrate 0.05 g/l)", "value": "Purple"}, {"measurement": "Color", "setting": "[9]; pH 9, no iron", "value": "Purple"}, {"measurement": "Color", "setting": "[9]; pH 9, with iron (Ammoniacal iron citrate 0.05 g/l)", "value": "Purple"}, {"measurement": "Color", "setting": "[9]; pH 10, no iron", "value": "Mauve"}, {"measurement": "Color", "setting": "[9]; pH 10, with iron (Ammoniacal iron citrate 0.05 g/l)", "value": "Mauve"}]}
{"smiles": "O=C1c2ccccc2C(=O)c2c1ccc(O[C@@H]1O[C@H](CO)[C@@H](O)[C@H](O)[C@H]1O)c2O", "note": "[Alizarin-2-β-D-glucoside]", "values": [{"measurement": "Color observed", "setting": "[10]; 4 H", "value": "Purple"}, {"measurement": "Color observed", "setting": "[10]; 24 H", "value": "Purple"}, {"measurement": "Color observed", "setting": "[11]", "value": "Purple"}]}
